pIC50: −log10 of the molar value. Read-outs that look alike come from different tables or passages of the source.

The assay relates to IL-17A/A. Description: IL-17A/A HEK-Blue cell assay. The assay is classed as cell-based. The conditions noted are these: IL-17A/A inhibition, HEK-Blue IL-17A reporter cell line, IL17A/A 5 ng/mL. The protocol: The HEK-Blue IL-17A reporter cell line (Fisher #NC1408637) was used for cell-based IL-17A/A inhibition assays. Cells were grown and prepared for assays according to the manufacturer's instructions. This cell line consists of HEK 293 cells that were designed to expressed IL-17RA, IL-17RC, and the Act1 adapter molecule, the combination of which, when stimulated by IL-17A/A or IL17A/F activates a NFκB promoter and drives expression of the recombinant Secreted Alkaline Phosphatase (SEAP) gene. Media from the cells is then added to a development reagent (Quanti-Blue Substrate, Fisher #NC9711613), and read at A630.
Compounds were dispensed in DMSO to an empty clear 384-well tissue culture plate in a titration ranging from 10 μM to 27 pM, with DMSO added to every well to a final concentration of 0.1%. Cells were then added to the plate (45 μL/well at a concentration of 280,000 cells/mL). IL17A/A (Genscript #Z03228) or IL17A/F (R&D Systems) was added to the plate to a final concentration of 5 ng/mL and a final well volume of 50 μL. The cells, compound, and IL-17A/A or IL17A/F were then incubated for 20 hours before media was removed for SEAP analysis. The resulting inhibition curve was then analyzed using Dotmatics' integrated 4-parameter fit screening protocol to generate IC50 values.

[1] abbreviates: HEK-Blue, 20 h, SEAP read at A630, read-out: AA IC50.
Where [2] appears, read: 20 hours, SEAP read at A630, read-out: AA IC50.

Consider `O=C(N[C@H](c1cn2nc(C[C@H]3C[C@@H](C(F)(F)F)CNC3=O)c(C3CCOCC3)cc2n1)C1CCC(F)(F)CC1)c1ccnn1C1CC1(F)F` (stereo partly shown) [Compound 92], for which the pIC50 (usually the negative decadic logarithm of the IC50, by convention in mol/L) under setting [1] was 6.00 to 7.00.

For the compound `CCn1nccc1C(=O)N[C@H](c1cn2nc(C[C@H]3C[C@@H](C(F)(F)F)CNC3=O)c(C3CCS(=O)(=O)CC3)cc2n1)C1CCC(F)(F)CC1` [Compound 118, N—((S)-(4,4-difluorocyclohexyl)(7-(1,1-dioxidotetrahydro-2H-thiopyran-4-yl)-6-(((3R,5R)-2-oxo-5-(trifluoromethyl)piperidin-3-yl)methyl)imidazo[1,2-b]pyridazin-2-yl)methyl)-1-ethyl-1H-pyrazole-5-carboxamide], under setting [1], the negative logarithm of the IC50 (pIC50) is above 7.00.

`CCn1nccc1C(=O)N[C@H](c1cn2nc(C[C@H]3C[C@@H](C(F)(F)F)CNC3=O)c(N3CC4(CCCOC4)C3)cc2n1)C1CCC(F)(F)CC1` [Compound 47]: under setting [1], the negative logarithm of the IC50 (pIC50) was above 7.00.

Consider `O=C(N[C@H](c1cn2nc(C[C@H]3C[C@@H](C(F)(F)F)CNC3=O)c(C3CCOCC3)cc2n1)[C@H]1CCCC(F)(F)C1)c1nonc1C1CC1` [Compound 57], for which, under setting [1], the pIC50 was above 7.00.

As for `CCn1nccc1C(=O)N[C@H](c1cn2nc(C[C@@H]3C[C@@H](C(F)(F)F)CNC3=O)c(N3CCOCC3C)cc2n1)C1CCC(F)(F)CC1` (stereo partly shown) [Compound 97], under setting [2], the pIC50 was above 7.00.

As to `CCn1nccc1C(=O)N[C@H](c1cn2nc(C[C@H]3C[C@@H](C(F)(F)F)CNC3=O)c(CNCC(F)(F)F)cc2n1)C1CCC(F)(F)CC1` [Compound 115, N—((S)-(4,4-difluorocyclohexyl)(6-(((3R,5R)-2-oxo-5-(trifluoromethyl)piperidin-3-yl)methyl)-7-(((2,2,2-trifluoroethyl)amino)methyl)imidazo[1,2-b]pyridazin-2-yl)methyl)-1-ethyl-1H-pyrazole-5-carboxamide], under setting [1], the pIC50 was above 7.00.

In the case of `O=C(N[C@H](c1cn2nc(C[C@@H]3C[C@@H](C(F)(F)F)CNC3=O)c(N3CCOCC3)cc2n1)C1CCC(F)(F)CC1)c1nonc1C1CC1` [Compound 17], under setting [1], the pIC50 was 6.00 to 7.00.

For the compound `CCn1nccc1C(=O)N[C@H](c1cn2nc(C[C@H]3C[C@@H](C(F)(F)F)CNC3=O)c(N3CC4(COC4)C3)cc2n1)C1CCC(F)(F)CC1` [Compound 43], the negative-log IC50 (pIC50) under setting [1] was 6.00 to 7.00.

Regarding `CCn1nccc1C(=O)N[C@H](c1cn2nc(C[C@@H]3C[C@H](C)CNC3=O)c(C3CCOCC3)cc2n1)C1CCC(F)(F)CC1` [Compound 103, N—((1S)-(4,4-difluorocyclohexyl)(6-(((5S)-5-methyl-2-oxopiperidin-3-yl)methyl)-7-(tetrahydro-2H-pyran-4-yl)imidazo[1,2-b]pyridazin-2-yl)methyl)-1-ethyl-1H-pyrazole-5-carboxamide], the pIC50 under setting [1] was above 7.00.

In the case of `O=C(N[C@H](c1cn2nc(C[C@H]3C[C@H](C(F)(F)F)CNC3=O)c(N3CCOCC3)cc2n1)C1CCC(F)(F)CC1)c1nonc1C1CC1` [Compound 38], under setting [1], the pIC50 is above 7.00.

In the case of `O=C(N[C@H](c1cn2nc(C[C@H]3C[C@@H](C(F)(F)F)CNC3=O)c(C3CCOC3)cc2n1)C1CCC(F)(F)CC1)c1nonc1C1CC1` (single isomer, unassigned) [Compound 45], the pIC50 under setting [1] was above 7.00.

Turning to `CCn1nccc1C(=O)N[C@H](c1cn2nc(C[C@H]3C[C@@H](C(F)(F)F)CNC3=O)c(CN3CCCCC3)cc2n1)C1CCC(F)(F)CC1` [Compound 107, N—((S)-(4,4-difluorocyclohexyl)(6-(((3R,5R)-2-oxo-5-(trifluoromethyl)piperidin-3-yl)methyl)-7-(piperidin-1-ylmethyl)imidazo[1,2-b]pyridazin-2-yl)methyl)-1-ethyl-1H-pyrazole-5-carboxamide], the pIC50 under setting [1] was above 7.00.

Take `O=C(N[C@H](c1cn2nc(C[C@@H]3C[C@H](C(F)(F)F)CNC3=O)c(N3CCOCC3)cc2n1)C1CCC(F)(F)CC1)c1nonc1C1CC1` [Compound 39]: the negative-log IC50 (pIC50) under setting [1] is below 6.00.

With `CCn1nccc1C(=O)N[C@H](c1cn2nc(C[C@H]3C[C@@H](C(F)(F)F)CNC3=O)c(N3CCN(CCOC)CC3)cc2n1)C1CCC(F)(F)CC1` [Compound 99, N—((S)-(4,4-difluorocyclohexyl)(7-(4-(2-methoxyethyl)piperazin-1-yl)-6-(((3R,5R)-2-oxo-5-(trifluoromethyl)piperidin-3-yl)methyl)imidazo[1,2-b]pyridazin-2-yl)methyl)-1-ethyl-1H-pyrazole-5-carboxamide], the negative-log IC50 (pIC50) under setting [1] is above 7.00.

As to `CCn1nccc1C(=O)N[C@H](c1cn2nc(C[C@H]3C[C@@H](C(F)(F)F)CNC3=O)c(N3CCN4CCOC[C@@H]4C3)cc2n1)C1CCC(F)(F)CC1` [Compound 104, N—((S)-(4,4-difluorocyclohexyl)(7-((S)-hexahydropyrazino[2,1-c][1,4]oxazin-8(1H)-yl)-6-(((3R,5R)-2-oxo-5-(trifluoromethyl)piperidin-3-yl)methyl)imidazo[1,2-b]pyridazin-2-yl)methyl)-1-ethyl-1H-pyrazole-5-carboxamide], the pIC50 under setting [1] was above 7.00.

In the case of `O=C(N[C@H](c1cn2nc(C[C@H]3C[C@@H](C(F)(F)F)CNC3=O)c(N3CC4(COC4)C3)cc2n1)C1CCC(F)(F)CC1)c1nonc1C1CC1` [Compound 42], under setting [1], the pIC50 is 6.00 to 7.00.

On to `CCn1nccc1C(=O)N[C@H](c1cn2nc(C[C@H]3C[C@@H](C(F)(F)F)CNC3=O)c(C3CCOC3)cc2n1)[C@H]1CCCC(F)(F)C1` (stereo partly shown) [Compound 71], for which the pIC50 under setting [2] is above 7.00.

As for `CCn1nccc1C(=O)N[C@H](c1cn2nc(C[C@H]3C[C@@H](C(F)(F)F)CNC3=O)c(N3CC(OC)C3)cc2n1)C1CCC(F)(F)CC1` [Compound 79], the pIC50 under setting [1] was above 7.00.

For `CCn1nccc1C(=O)N[C@H](c1cn2nc(C[C@H]3C[C@@H](C(F)(F)F)CNC3=O)c(C3CCCOC3)cc2n1)[C@@H]1CCCC(F)(F)C1` (stereo partly shown) [Compound 66], the pIC50 under setting [2] was above 7.00.

As for `CCn1nccc1C(=O)N[C@H](c1cn2nc(C[C@H]3C[C@@H](C(F)(F)F)CNC3=O)c(N3CC4CCC(C3)O4)cc2n1)C1CCC(F)(F)CC1` [Compound 50], under setting [1], the negative-log IC50 (pIC50) is above 7.00.

Take `CCn1nccc1C(=O)N[C@H](c1cn2nc(C[C@H]3C[C@@H](C(F)(F)F)CNC3=O)c(CN3CCC(F)(F)C3)cc2n1)C1CCC(F)(F)CC1` [Compound 105, N—((S)-(4,4-difluorocyclohexyl)(7-((3,3-difluoropyrrolidin-1-yl)methyl)-6-(((3R,5R)-2-oxo-5-(trifluoromethyl)piperidin-3-yl)methyl)imidazo[1,2-b]pyridazin-2-yl)methyl)-1-ethyl-1H-pyrazole-5-carboxamide]: under setting [1], the negative logarithm of the IC50 (pIC50) was above 7.00.

For `CCn1nccc1C(=O)N[C@H](c1cn2nc(C[C@H]3C[C@@H](C(F)(F)F)CNC3=O)c(N3CCN(C)C4(CC4)C3)cc2n1)C1CCC(F)(F)CC1` [Compound 82], under setting [1], the pIC50 was above 7.00.

With `CCn1nccc1C(=O)N[C@H](c1cn2nc(C[C@H]3C[C@@H](C(F)(F)F)CNC3=O)c(N3CCOCC3)cc2n1)[C@@H]1CCCC(F)(F)C1` [Compound 26], under setting [1], the negative-log IC50 (pIC50) is above 7.00.

Turning to `CCn1nccc1C(=O)N[C@H](c1cn2nc(C[C@H]3C[C@@H](C(F)(F)F)CNC3=O)c(CN3CC(F)(F)C3)cc2n1)C1CCC(F)(F)CC1` [Compound 109, N—((S)-(7-((3,3-difluoroazetidin-1-yl)methyl)-6-(((3R,5R)-2-oxo-5-(trifluoromethyl)piperidin-3-yl)methyl)imidazo[1,2-b]pyridazin-2-yl)(4,4-difluorocyclohexyl)methyl)-1-ethyl-1H-pyrazole-5-carboxamide], the pIC50 under setting [1] was above 7.00.

As to `CCn1nccc1C(=O)N[C@H](c1cn2nc(C[C@H]3C[C@@H](C(F)(F)F)CNC3=O)c(CN3CCCC3)cc2n1)C1CCC(F)(F)CC1` [Compound 106, N—((S)-(4,4-difluorocyclohexyl)(6-(((3R,5R)-2-oxo-5-(trifluoromethyl)piperidin-3-yl)methyl)-7-(pyrrolidin-1-ylmethyl)imidazo[1,2-b]pyridazin-2-yl)methyl)-1-ethyl-1H-pyrazole-5-carboxamide], the pIC50 under setting [1] was above 7.00.

For the compound `CCn1nccc1C(=O)N[C@H](c1cn2nc(C[C@H]3C[C@@H](C(F)(F)F)CNC3=O)c(N3CC4(CCOCC4)C3)cc2n1)C1CCC(F)(F)CC1` [Compound 48], under setting [1], the pIC50 is above 7.00.

Consider `CC(C)n1nccc1C(=O)N[C@H](c1cn2nc(C[C@H]3C[C@@H](C(F)(F)F)CNC3=O)c(N3CCOCC3)cc2n1)[C@H]1CCCC(F)(F)C1` [Compound 27], for which, under setting [1], the pIC50 is above 7.00.

`CCn1nccc1C(=O)N[C@H](c1cn2nc(C[C@H]3C[C@@H](C(F)(F)F)CNC3=O)c(N3CCN(C4CC4)CC3)cc2n1)C1CCC(F)(F)CC1` [Compound 80]: the pIC50 under setting [1] is above 7.00.

Turning to `CCn1nccc1C(=O)N[C@H](c1cn2nc(C[C@H]3C[C@@H](C(F)(F)F)CNC3=O)c(-c3cccnc3)cc2n1)C1CCC(F)(F)CC1` [Compound 3], under setting [1], the pIC50 is 6.00 to 7.00.

On to `CCn1nccc1C(=O)N[C@H](c1cn2nc(C[C@H]3C[C@@H](C(F)(F)F)CNC3=O)c(N3CCCCC3)cc2n1)C1CCC(F)(F)CC1` [Compound 18], for which, under setting [1], the pIC50 is above 7.00.

In the case of `CCn1ncnc1C(=O)N[C@H](c1cn2nc(C[C@H]3C[C@@H](C(F)(F)F)CNC3=O)c(C3CCOCC3)cc2n1)C1CCC(F)(F)CC1` [Compound 89], the pIC50 under setting [1] is 6.00 to 7.00.

For the origin of these results see US20260265259A1, “SUBSTITUTED 6-IMIDAZOPYRIDAZINE IL-17A MODULATORS AND USES THEREOF” (DICE ALPHA, INC., priority 2023, published 2026).
